Tested on: 521955-158-R2-J5-PDC complex spheroid growth
Experiment: Anticancer human tumor 521955-158-R2-J5-PDC patient-derived pancreatic carcinoma cell line growth inhibition [AhR]
Conditions: for IC50: curve of first compound; for viability, T/C: stronger effect = lower value
Method in brief: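 Complex tumor spheroids co-cultured with HUVEC and human MSC stroma; AhR antagonists tested in combination with standard-of-care and investigational agents. Top concentration at or near clinical Cmax (else 10 microM), half-log dilutions; growth expressed as percent test/control.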

[1] = second compound 0.1 µM, first compound 0.0316 µM
[2] = second compound 0.1 µM, first compound 0.1 µM
[3] = second compound 0.1 µM, first compound 0.316 µM
[4] = second compound 0.1 µM, first compound 1 µM
[5] = second compound 0.1 µM, first compound 3.16 µM
[6] = second compound 0.1 µM, first compound 10 µM
[7] = second compound 0.316 µM, first compound 0.0316 µM
[8] = second compound 0.316 µM, first compound 0.1 µM
[9] = second compound 0.316 µM, first compound 0.316 µM
[10] = second compound 0.316 µM, first compound 1 µM
[11] = second compound 0.316 µM, first compound 3.16 µM
[12] = second compound 0.316 µM, first compound 10 µM
[13] = second compound 1 µM, first compound 0.0316 µM
[14] = second compound 1 µM, first compound 0.1 µM
[15] = second compound 1 µM, first compound 0.316 µM
[16] = second compound 1 µM, first compound 1 µM
[17] = second compound 1 µM, first compound 3.16 µM
[18] = second compound 1 µM, first compound 10 µM
[19] = second compound 3.16 µM, first compound 0.0316 µM
[20] = second compound 3.16 µM, first compound 0.1 µM
[21] = second compound 3.16 µM, first compound 0.316 µM
[22] = second compound 3.16 µM, first compound 1 µM
[23] = second compound 3.16 µM, first compound 3.16 µM
[24] = second compound 3.16 µM, first compound 10 µM
[25] = second compound 10 µM, first compound 0.0316 µM
[26] = second compound 10 µM, first compound 0.1 µM
[27] = second compound 10 µM, first compound 0.316 µM
[28] = second compound 10 µM, first compound 1 µM
[29] = second compound 10 µM, first compound 3.16 µM
[30] = second compound 10 µM, first compound 10 µM
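Wherever viability, T/C is given: spheroids mix tumor cells with HUVEC endothelium and human MSC stroma; luminescence taken as viability surrogate after a week of drug exposure.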

Structure (SMILES): CC(C)c1c(-c2ccccc2)nc2c(C#N)c[nH]n2c1=O + Cc1cncc(-c2nc(NCCc3c[nH]c4ccccc34)c3ncn(C(C)C)c3n2)c1
- IC50 (second compound 0.1 µM): > 10000 nM
- IC50 (second compound 0.316 µM): > 10000 nM
- IC50 (second compound 1 µM): > 10000 nM
- IC50 (second compound 3.16 µM): > 10000 nM
- IC50 (second compound 10 µM): > 10000 nM
- viability, T/C [1]: 96.9%
- viability, T/C [2]: 112%
- viability, T/C [3]: 114%
- viability, T/C [4]: 101%
- viability, T/C [5]: 98.7%
- viability, T/C [6]: 94.6%
- viability, T/C [7]: 101%
- viability, T/C [8]: 137%
- viability, T/C [9]: 98.9%
- viability, T/C [10]: 106%
- viability, T/C [11]: 95.7%
- viability, T/C [12]: 94.6%
- viability, T/C [13]: 133%
- viability, T/C [14]: 142%
- viability, T/C [15]: 127%
- viability, T/C [16]: 112%
- viability, T/C [17]: 106%
- viability, T/C [18]: 105%
- viability, T/C [19]: 169%
- viability, T/C [20]: 151%
- viability, T/C [21]: 146%
- viability, T/C [22]: 134%
- viability, T/C [23]: 131%
- viability, T/C [24]: 136%
- viability, T/C [25]: 134%
- viability, T/C [26]: 147%
- viability, T/C [27]: 153%
- viability, T/C [28]: 143%
- viability, T/C [29]: 118%
- viability, T/C [30]: 124%

Structure (SMILES): CC1COCCN1c1cc(-c2ccnn2C)c2ccnc(-c3ccn[nH]3)c2n1 (stereo not given) + Cc1cncc(-c2nc(NCCc3c[nH]c4ccccc34)c3ncn(C(C)C)c3n2)c1
- IC50 (second compound 0.1 µM): 116 nM
- IC50 (second compound 0.316 µM): 136 nM
- IC50 (second compound 1 µM): 87.4 nM
- IC50 (second compound 3.16 µM): 132 nM
- IC50 (second compound 10 µM): 88.8 nM
- viability, T/C (second compound 0.1 µM, first compound 0.00316 µM): 112%
- viability, T/C (second compound 0.1 µM, first compound 0.01 µM): 109%
- viability, T/C [1]: 106%
- viability, T/C [2]: 55.6%
- viability, T/C [3]: 12.8%
- viability, T/C [4]: 16.2%
- viability, T/C (second compound 0.316 µM, first compound 0.00316 µM): 113%
- viability, T/C (second compound 0.316 µM, first compound 0.01 µM): 130%
- viability, T/C [7]: 117%
- viability, T/C [8]: 63.3%
- viability, T/C [9]: 12.4%
- viability, T/C [10]: 12.7%
- viability, T/C (second compound 1 µM, first compound 0.00316 µM): 94.7%
- viability, T/C (second compound 1 µM, first compound 0.01 µM): 123%
- viability, T/C [13]: 121%
- viability, T/C [14]: 41.6%
- viability, T/C [15]: 15.7%
- viability, T/C [16]: 13.1%
- viability, T/C (second compound 3.16 µM, first compound 0.00316 µM): 176%
- viability, T/C (second compound 3.16 µM, first compound 0.01 µM): 167%
- viability, T/C [19]: 145%
- viability, T/C [20]: 61.1%
- viability, T/C [21]: 13.6%
- viability, T/C [22]: 19.1%
- viability, T/C (second compound 10 µM, first compound 0.00316 µM): 127%
- viability, T/C (second compound 10 µM, first compound 0.01 µM): 134%
- viability, T/C [25]: 105%
- viability, T/C [26]: 45.2%
- viability, T/C [27]: 8.85%
- viability, T/C [28]: 12.9%

Structure (SMILES): COc1ccc([C@@H](O)c2cc(-c3ncnc4cc(N5CCOCC5)ccc34)c(F)cc2Cl)nn1 + Cc1cncc(-c2nc(NCCc3c[nH]c4ccccc34)c3ncn(C(C)C)c3n2)c1
- IC50 (second compound 0.1 µM): > 10000 nM
- IC50 (second compound 0.316 µM): > 10000 nM
- IC50 (second compound 1 µM): > 10000 nM
- IC50 (second compound 3.16 µM): > 10000 nM
- IC50 (second compound 10 µM): > 10000 nM
- viability, T/C [1]: 102%
- viability, T/C [2]: 102%
- viability, T/C [3]: 99.7%
- viability, T/C [4]: 78.1%
- viability, T/C [5]: 65.8%
- viability, T/C [6]: 50.8%
- viability, T/C [7]: 118%
- viability, T/C [8]: 116%
- viability, T/C [9]: 113%
- viability, T/C [10]: 85.1%
- viability, T/C [11]: 75.1%
- viability, T/C [12]: 54.4%
- viability, T/C [13]: 115%
- viability, T/C [14]: 127%
- viability, T/C [15]: 113%
- viability, T/C [16]: 104%
- viability, T/C [17]: 83.3%
- viability, T/C [18]: 61.6%
- viability, T/C [19]: 134%
- viability, T/C [20]: 153%
- viability, T/C [21]: 130%
- viability, T/C [22]: 111%
- viability, T/C [23]: 96.3%
- viability, T/C [24]: 65.9%
- viability, T/C [25]: 138%
- viability, T/C [26]: 131%
- viability, T/C [27]: 175%
- viability, T/C [28]: 114%
- viability, T/C [29]: 62.9%
- viability, T/C [30]: 46.6%

Structure (SMILES): O=C(C=Cn1cnc(-c2cc(C(F)(F)F)cc(C(F)(F)F)c2)n1)NNc1cnccn1 + Cc1cncc(-c2nc(NCCc3c[nH]c4ccccc34)c3ncn(C(C)C)c3n2)c1
- IC50 (second compound 0.1 µM): 218 nM
- IC50 (second compound 0.316 µM): 200 nM
- IC50 (second compound 1 µM): 251 nM
- IC50 (second compound 3.16 µM): 108 nM
- IC50 (second compound 10 µM): < 9.49 nM
- viability, T/C (second compound 0.1 µM, first compound 0.00949 µM): 65.6%
- viability, T/C (second compound 0.1 µM, first compound 0.03 µM): 59.7%
- viability, T/C (second compound 0.1 µM, first compound 0.0949 µM): 53.2%
- viability, T/C (second compound 0.1 µM, first compound 0.3 µM): 51.5%
- viability, T/C (second compound 0.1 µM, first compound 0.949 µM): 37.1%
- viability, T/C (second compound 0.1 µM, first compound 3 µM): 26.3%
- viability, T/C (second compound 0.316 µM, first compound 0.00949 µM): 76.1%
- viability, T/C (second compound 0.316 µM, first compound 0.03 µM): 58.9%
- viability, T/C (second compound 0.316 µM, first compound 0.0949 µM): 57.6%
- viability, T/C (second compound 0.316 µM, first compound 0.3 µM): 49.3%
- viability, T/C (second compound 0.316 µM, first compound 0.949 µM): 39.6%
- viability, T/C (second compound 0.316 µM, first compound 3 µM): 29.1%
- viability, T/C (second compound 1 µM, first compound 0.00949 µM): 74.5%
- viability, T/C (second compound 1 µM, first compound 0.03 µM): 70%
- viability, T/C (second compound 1 µM, first compound 0.0949 µM): 54.5%
- viability, T/C (second compound 1 µM, first compound 0.3 µM): 49.4%
- viability, T/C (second compound 1 µM, first compound 0.949 µM): 38.9%
- viability, T/C (second compound 1 µM, first compound 3 µM): 24.9%
- viability, T/C (second compound 3.16 µM, first compound 0.00949 µM): 78.7%
- viability, T/C (second compound 3.16 µM, first compound 0.03 µM): 59.1%
- viability, T/C (second compound 3.16 µM, first compound 0.0949 µM): 53.2%
- viability, T/C (second compound 3.16 µM, first compound 0.3 µM): 36.8%
- viability, T/C (second compound 3.16 µM, first compound 0.949 µM): 40.9%
- viability, T/C (second compound 3.16 µM, first compound 3 µM): 23.8%
- viability, T/C (second compound 10 µM, first compound 0.00949 µM): 38.3%
- viability, T/C (second compound 10 µM, first compound 0.03 µM): 35.9%
- viability, T/C (second compound 10 µM, first compound 0.0949 µM): 28.2%
- viability, T/C (second compound 10 µM, first compound 0.3 µM): 24.7%
- viability, T/C (second compound 10 µM, first compound 0.949 µM): 19.7%
- viability, T/C (second compound 10 µM, first compound 3 µM): 19.8%
